The numbers were not newly measured in patent publication US6638535B2, “Modified release formulations containing a hypnotic agent” (Synthon BV, priority 2000, dated 2003), which cites them from elsewhere.

The conditions of the data set: in therapy, after ingestion of the commercial immediate release tablet.

For `Cc1ccc(-c2nc3ccc(C)cn3c2CC(=O)N(C)C)cc1` [zolpidem, N,N,6-trimethyl-2-(4-methylphenyl)-imidazo[1,2-s]pyridine-3-acetamide], the “duration of action (action lasts)” value is 4 to 6 h. The “onset of action (starts acting)” value ('or even earlier') is 15 to 30 min.
